Results on two compounds are retold here after ChEMBL document CHEMBL3217482, “Synthesis and biological evaluation of novel 1-aryl, 5-(phenoxy-substituted)aryl-1,4-pentadien-3-one derivatives” (Medchemcomm, 2011).

Assay [1] concerns PC-3. Description: Antiproliferative against human PC3 cells assessed as growth inhibition at 1 uM after 72 hrs by MTT assay relative to control. It is filed as functional. The note with it: PC-3, 72 h, read-out: GI. (In general: Formazan colour is commonly taken as a measure of viable cells.)
The test system of assay [2] is PC-3. Nature of the assay: Antiproliferative against human PC3 cells assessed as growth inhibition at 10 uM after 72 hrs by MTT assay relative to control. In kind it is functional. The note with it: PC-3, 72 h, read-out: GI.
For assay [3], the system named is Bcap37. Nature of the assay: Antiproliferative against human Bcap37 cells assessed as growth inhibition at 10 uM after 72 hrs by MTT assay relative to control. In kind it is functional. To be noted: Bcap37, 72 h, read-out: GI.
Assay [4] is described as follows: Antiproliferative against human BGC823 cells assessed as growth inhibition at 10 uM after 72 hrs by MTT assay relative to control. It is filed as functional. To be noted: BGC-823, 72 h, read-out: GI.
The subject of assay [5] is Bcap37. Description: Antiproliferative against human Bcap37 cells assessed as growth inhibition at 1 uM after 72 hrs by MTT assay relative to control. In kind it is functional. The note with it: Bcap37, 72 h, read-out: GI.
Assay [6] in a line: Antiproliferative against human BGC823 cells assessed as growth inhibition at 1 uM after 72 hrs by MTT assay relative to control. It is filed as functional. The note with it: BGC-823, 72 h, read-out: GI.
The test system of assay [7] is Bcap37. Description: Antiproliferative against human Bcap37 cells assessed as growth inhibition after 72 hrs by MTT assay. In kind it is functional, cell-based. The note with it: Bcap37, 72 h.
Assay [8] can be described thus: Antiproliferative against human BGC823 cells assessed as growth inhibition after 72 hrs by MTT assay. In kind it is functional, cell-based. The note with it: BGC-823, 72 h.

Regarding `CC[C@@]1(O)C(=O)OCc2c1cc1n(c2=O)Cc2cc3cc(O)ccc3nc2-1` [HYDROXYCAMPTOTHECIN], the figures for the inhibition of growth at 1 µM (with PC-3 [1]; with Bcap37 [5]; in assay [6]) were 17.1%, 8.8% and 7.3%, respectively. Moreover, the results for the inhibition of growth at 10 µM (in the assay with PC-3 [2]; in the assay with Bcap37 [3]; in assay [4]) were 37%, 33.5% and 26.5%, respectively.
In the case of `COc1cccc2c1C(=O)c1c(O)c3c(c(O)c1C2=O)C[C@@](O)(C(=O)CO)C[C@@H]3O[C@H]1C[C@H](N)[C@H](O)[C@H](C)O1` [DOXORUBICIN], the inhibition of growth at 1 µM came to 88.2% in the assay with PC-3 [1], 84.2% in the assay on Bcap37 [5] and 90.7% in assay [6]. The IC50 in the assay on Bcap37 [7] stood at 2 µM; in assay [8], 2.6 µM. The results for the inhibition of growth at 10 µM (with PC-3 [2]; in the assay on Bcap37 [3]; in assay [4]) were 94.7%, 93.1% and 95.9%, respectively.

The term IC50 denotes the concentration that gives 50% inhibition.
